Measurements published in patent US20070213291A1, “Therapeutically useful synthetic oligonucleotides” (priority 1999, published 2007).
Several values for one entry are separate records, joined by “and”; a condition that tells them apart may be missing. Identical values can stand only once.

Legend:
Assay type in all cases: cell-based
rhesus monkey PBMCs = experiment: Cytokine production by rhesus monkey PBMC (ELISA); details: PBMC of 4 healthy rhesus monkeys, 100 μg/ml, 48 h
Summary of the method: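 Peripheral blood mononuclear cells taken from 4 healthy rhesus monkeys were cultured at 1×10^6 cells with 100 μg/ml of each test sequence for 48 h at 37° C. under 5% CO2. Cytokine levels in 100 μl of supernatant were quantified in pg/ml by commercial ELISA and reported as fold increase over untreated control cells.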

[1] = system: human peripheral blood mononuclear cells; experiment: Cytokine production by human PBMC (ELISA); details: PBMC of 7 healthy humans, 100 μg/ml, 48 h
Summary of the method: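 PBMC from 7 healthy donors, Ficoll-isolated; 1×10^6 cells incubated with 100 μg/ml oligonucleotide sequence for 48 h at 37 °C, 5% CO2. IL-1beta, IL-6, IL-10, IL-12 (p70 plus free p40) and TNF-alpha measured by ELISA in supernatant, expressed as fold increase over control cells.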

[2] = system: HL-60 human promyelocytic leukemia cells; experiment: Inhibition of HL-60 cell proliferation (MTT); details: 100 μg/ml, 48 h
Protocol: (§1) Cells were seeded in 6 (1 ml/well), 24 (0.5 ml/well) or 96 (0.1 ml/well) well flat-bottom microplates and were maintained at 37° C. in a 5% CO2 atmosphere. Unless stated otherwise, 2.5×10^5 cells/ml were incubated with 0 μg/ml (control) and 100 μg/ml (treated) of 2 to 45 base sequences containing A, C, G and T for 48 h.
(§2) Cell proliferation was measured using dimethylthiazol-diphenyl-tetrazolium (MTT) reduction (Mosman et al. J. Immunol. Methods 65:55, 1983). MTT was measured at a wavelength of 570 nm using a multiplate spectrophotometer reader (ELX800, Bio-TEK Instruments Inc., Winooski, Vt.).
HL-60 promyelocytic leukemia cells are a p53 mutated human suspension tumor model. HL-60 cells were incubated with 6 base GT sequences (Table 6).

[3] = system: Jurkat human leukemia T cells; experiment: Apoptosis by phosphatidylserine/annexin V-FITC flow cytometry; details: 50 μM sequence
Summary of the method: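 Jurkat cells were exposed to 3–7-base oligonucleotides (GT, ACGT, AG, GG, AGT, CGT sequences) at 50 μM. Separately, 6-base GT and complementary AC sequences, alone or hybridized 1:1 (10 min, 65 °C), were applied for 24 h. Phosphatidylserine exposure was quantified by flow cytometry with FITC-annexin V.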

[4] = system: MCF-7 human breast cancer cells; experiment: Inhibition of MCF-7 cell proliferation (MTT); details: for % INHIBITION of MCF-7 human breast cancer cell proliferation: 100 μg/ml, 48 h, 5×10^5 cells/ml
Summary of the method: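 Cells at 2.5×10^5 cells/ml (GT 3- and 6-base series at 5×10^5 cells/ml) treated with 100 μg/ml of 2-45-base oligonucleotide sequences versus untreated control for 48 h at 37 °C, 5% CO2. Proliferation read by MTT reduction at 570 nm.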

[5] = system: LNCaP human prostate cancer cells; experiment: Inhibition of LNCaP cell proliferation (MTT); details: 100 μg/ml, 48 h, 5×10^5 cells/ml
Summary of the method: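 Cells (2.5×10^5 or 5×10^5 cells/ml) exposed to 100 μg/ml of 2–45 base A/C/G/T sequences, including 6-base GT sequences, versus untreated control, 48 h at 37 °C, 5% CO2. Proliferation read by MTT reduction at 570 nm.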

[6] = system: Jurkat human leukemia T cells; experiment: Inhibition of Jurkat human leukemia T cell proliferation (MTT reduction); details: for % INHIBITION of Jurkat proliferation at suboptimal concentration: 5.0 μg/ml of each 6 base sequence, alone or two together; for % INHIBITION of Jurkat human leukemia T cell proliferation: 100 μg/ml sequence, 48 h, 2.5×10^5 cells/ml
Summary of the method: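 Read-out is MTT absorbance at 570 nm after 48 h. Sequences of 2 to 45 bases (A, C, G, T) tested at 100 μg/ml against untreated control, with 2.5×10^5 Jurkat cells/ml held at 37° C under 5% CO2.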

[7] = system: PC-3 human prostate cancer cells; experiment: Inhibition of PC-3 cell proliferation (MTT); details: 100 μg/ml, 48 h, 5×10^5 cells/ml
Summary of the method: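 PC-3 cells (5×10^5 cells/ml) exposed 48 h at 37 °C to 3- and 6-base GT oligonucleotide sequences at 100 μg/ml versus untreated control. Proliferation read by MTT reduction at 570 nm.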

[8] = system: THP-1 human acute monocytic leukemia cells; experiment: Inhibition of THP-1 cell proliferation (MTT); details: 100 μg/ml, 48 h, 1.6×10^6 cells/ml
Protocol: as §1, §2
THP-1 acute monocytic leukemia cells are a p53 null human suspension tumor model. THP-1 cells (1.6×10^6 cells/ml) were incubated with 6 base GT sequences (Table 10).

[9] = system: THP-1 human acute monocytic leukemia cells; experiment: Cytokine production by THP-1 cells (ELISA); details: THP-1, 1×10^6 cells, 100 μg/ml, 48 h; for ↑ IL-12 (fold increase treated vs control cells): p70 complex and free p40
Summary of the method: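 Read-out is fold increase in supernatant cytokine versus control cells, measured by ELISA (IL-12 ELISA counts p70 complex plus free p40). Unless noted, sequences were tested at 100 μg/ml on 1×10^6 cells, incubated 48 h, 37° C, 5% CO2.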

[10] = 5-fluorouracil 0.1 μg/ml, alone or with sequence at 1.0 μg/ml
[11] = 5-fluorouracil 1.0 μg/ml, alone or with sequence at 1.0 μg/ml
[12] = 5-fluorouracil 10.0 μg/ml, alone or with sequence at 1.0 μg/ml
[13] = sequence at 1.0 μg/ml, 5-fluorouracil 0.0 μg/ml

With GGGTGG [SEQ ID NO:25] the “IL-10 fold increase: mean +/− SD” value (rhesus monkey PBMCs) was 1.0 +/− 0.1 fold increase, the “IL-12 fold increase: mean +/− SD” value (rhesus monkey PBMCs) was 10.6 +/− 4.7 fold increase and the “TNF-alpha fold increase: mean +/− SD” value (rhesus monkey PBMCs) was 12.5 +/− 5.2 fold increase. The “IL-1 beta fold increase: mean +/− SD” value [1] was 1.0 +/− 0.1 fold increase, the “IL-6 fold increase: mean +/− SD” value [1] was 20.9 +/− 18.0 fold increase and the “IL-10 fold increase: mean +/− SD” value [1] was 11.6 +/− 1.2 fold increase. The “IL-12 fold increase: mean +/− SD” value [1] was 13.2 +/− 11.5 fold increase, the “% INHIBITION of HL-60 human promyelocytic leukemia cell proliferation” value [2] was 35% and the “% of cells in apoptosis (positive for PS/A-V staining)” value (from here on “% of cells in apoptosis”) [3] was 27%. The “% INHIBITION of MCF-7 human breast cancer cell proliferation” value [4] was 41%, the “% INHIBITION of MCF-7 proliferation, 5-Fluorouracil 0.1 μg/ml” value [4, 10] was 24% and the “% INHIBITION of MCF-7 proliferation, 5-Fluorouracil 1.0 μg/ml” value [4, 11] was 36%. For the same sequence, the “% INHIBITION of MCF-7 proliferation, 5-Fluorouracil 10.0 μg/ml” value [4, 12] was 33%, the “potentiation of antineoplastic effect of 5-fluorouracil on MCF-7 cell proliferation” value ([4]; sequence 1.0 μg/ml, 0.1 μg/ml 5-fluorouracil) was “potentiated” and the “potentiation of antineoplastic effect of tamoxifen on MCF-7 cell proliferation” value ([4]; sequence 1.0 μg/ml, 0.1 μg/ml tamoxifen) was “potentiated”. The “% INHIBITION of MCF-7 proliferation, 5-Fluorouracil 0.0 μg/ml” value [4, 13] was 6%, the “% INHIBITION of MCF-7 proliferation, Tamoxifen 0.0 μg/ml” value ([4]; sequence at 1.0 μg/ml, tamoxifen 0.0 μg/ml) was 6% and the “% INHIBITION of MCF-7 proliferation, Tamoxifen 0.1 μg/ml” value ([4]; tamoxifen 0.1 μg/ml, alone or with sequence at 1.0 μg/ml) was 21%. The “% INHIBITION of MCF-7 proliferation, Tamoxifen 1.0 μg/ml” value ([4]; tamoxifen 1.0 μg/ml, alone or with sequence at 1.0 μg/ml) was 24%, the “% INHIBITION of MCF-7 proliferation, Tamoxifen 10.0 μg/ml” value ([4]; tamoxifen 10.0 μg/ml, alone or with sequence at 1.0 μg/ml) was 31% and the “% INHIBITION of LNCaP human prostate cancer cell proliferation” value [5] was 18%. The “% INHIBITION of Jurkat proliferation at suboptimal concentration” value (from here on “% INHIBITION … at suboptimal concentration”) [6] was 5%, the “% INHIBITION of Jurkat human leukemia T cell proliferation” value [6] was 60% and the “% INHIBITION of Jurkat proliferation, 5-Fluorouracil 0.1 μg/ml” value [6, 10] was 10%. For the same sequence, the “% INHIBITION of Jurkat proliferation, 5-Fluorouracil 1.0 μg/ml” value [6, 11] was 21%, the “% INHIBITION of Jurkat proliferation, 5-Fluorouracil 10.0 μg/ml” value [6, 12] was 40% and the “relative potency versus AGT SEQ ID NO:49” value ([6]; Jurkat proliferation, PHARM/PCS-4 Software) was 3.4 times. For the same sequence, the “% INHIBITION of Jurkat proliferation, Cisplatin 0.1 μg/ml” value ([6]; cisplatin 0.1 μg/ml, alone or with sequence at 1.0 μg/ml) was 14%, the “% INHIBITION of Jurkat proliferation, Cisplatin 1.0 μg/ml” value ([6]; cisplatin 1.0 μg/ml, alone or with sequence at 1.0 μg/ml) was 38% and the “% INHIBITION of Jurkat proliferation, Cisplatin 10.0 μg/ml” value ([6]; cisplatin 10.0 μg/ml, alone or with sequence at 1.0 μg/ml) was 76%. The “potentiation of antineoplastic effect of 5-fluorouracil on Jurkat T cell proliferation” value ([6]; sequence 1.0 μg/ml, 0.1 and 1.0 μg/ml 5-fluorouracil) was “potentiated”, the “potentiation of antineoplastic effect of cisplatin on Jurkat T cell proliferation” value ([6]; sequence 1.0 μg/ml, 0.1 and 1.0 μg/ml cisplatin) was “potentiated” and the “% INHIBITION of Jurkat proliferation, 5-Fluorouracil 0.0 μg/ml” value [6, 13] was 0%. The “% INHIBITION of Jurkat proliferation, Cisplatin 0.0 μg/ml” value ([6]; sequence at 1.0 μg/ml, cisplatin 0.0 μg/ml) was 0%, the “% INHIBITION of PC-3 human prostate cancer cell proliferation” value [7] was 38% and the “% INHIBITION of THP-1 human acute monocytic leukemia cell proliferation” value [8] was 15%. For the same sequence, the “↑ IL-6 (fold increase treated vs control cells)” value [9] was 3.1x, the “↑ IL-12 (fold increase treated vs control cells)” value [9] was 2.3x and 2.0x and the “↑ IL-12 (fold increase treated vs control cells)” value ([9]; listed as GoGoGoToGoGo) was 2.0 x.

With GTGTGT [SEQ ID NO:10] the “IL-10 fold increase: mean +/− SD” value (rhesus monkey PBMCs) was 1.3 +/− 0.1 fold increase, the “IL-12 fold increase: mean +/− SD” value (rhesus monkey PBMCs) was 10.7 +/− 4.1 fold increase and the “TNF-alpha fold increase: mean +/− SD” value (rhesus monkey PBMCs) was 16.1 +/− 4.2 fold increase. For the same sequence, the “IL-1 beta fold increase: mean +/− SD” value [1] was 2.0 +/− 1.6 fold increase, the “IL-6 fold increase: mean +/− SD” value [1] was 9.8 +/− 14.2 fold increase and the “IL-10 fold increase: mean +/− SD” value [1] was 1.0 +/− 0.1 fold increase. The “IL-12 fold increase: mean +/− SD” value [1] was 4.0 +/− 6.3 fold increase, the “% INHIBITION of HL-60 human promyelocytic leukemia cell proliferation” value [2] was 13% and the “% of cells in apoptosis” value [3] was 33%. For the same sequence, the “% INHIBITION of MCF-7 human breast cancer cell proliferation” value [4] was 31%, the “% INHIBITION of LNCaP human prostate cancer cell proliferation” value [5] was −4% and the “% INHIBITION … at suboptimal concentration” value [6] was 2%. For the same sequence, the “% INHIBITION of Jurkat human leukemia T cell proliferation” value [6] was 44% and 48%, the “% INHIBITION of PC-3 human prostate cancer cell proliferation” value [7] was 37% and the “% INHIBITION of THP-1 human acute monocytic leukemia cell proliferation” value [8] was 11%. For the same sequence, the “↑ IL-6 (fold increase treated vs control cells)” value [9] was 5.0x and the “↑ IL-12 (fold increase treated vs control cells)” value [9] was 2.2x.

With TTGTTT [SEQ ID NO:26] the “IL-10 fold increase: mean +/− SD” value (rhesus monkey PBMCs) was 1.0 +/− 0.1 fold increase, the “TNF-alpha fold increase: mean +/− SD” value (rhesus monkey PBMCs) was 2.1 +/− 1.0 fold increase and the “IL-1 beta fold increase: mean +/− SD” value [1] was 1.5 +/− 0.9 fold increase. The “IL-6 fold increase: mean +/− SD” value [1] was 5.8 +/− 8.0 fold increase, the “IL-10 fold increase: mean +/− SD” value [1] was 1.0 +/− 0.1 fold increase and the “IL-12 fold increase: mean +/− SD” value [1] was 1.6 +/− 1.3 fold increase. For the same sequence, the “% INHIBITION of HL-60 human promyelocytic leukemia cell proliferation” value [2] was 16%, the “% of cells in apoptosis” value [3] was 14% and the “% INHIBITION of MCF-7 human breast cancer cell proliferation” value [4] was 20%. The “% INHIBITION of LNCaP human prostate cancer cell proliferation” value [5] was 22%, the “% INHIBITION … at suboptimal concentration” value [6] was −2% and the “% INHIBITION of Jurkat human leukemia T cell proliferation” value [6] was 34%. The “% INHIBITION of PC-3 human prostate cancer cell proliferation” value [7] was 18%, the “% INHIBITION of THP-1 human acute monocytic leukemia cell proliferation” value [8] was 1% and the “↑ IL-6 (fold increase treated vs control cells)” value [9] was 5.3 x. For the same sequence, the “↑ IL-12 (fold increase treated vs control cells)” value [9] was 3.5x and 3.8x.
